Data: patent publication US9302999B2, “Substituted triazoles as herbicides” (E. I. DU PONT DE NEMOURS AND COMPANY, priority 2012, dated 2016)

What was measured:
Type in all cases: in vivo
[1] = system: lambsquarters (Chenopodium album); experiment: Test D pre-/postemergence: lambsquarters
Method in brief: (§1)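 Visual ratings from 0 (no effect) to 100 (complete control) were made 14–21 days after treatment, relative to controls. Applications were preemergence to seeds in silt loam, or postemergence to 2–18 cm (1–4 leaf) plants in peat-based medium. Compounds were formulated in a surfactant-containing non-phytotoxic solvent.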

[2] = system: pigweed (Amaranthus retroflexus); experiment: Test D pre-/postemergence: pigweed
Method in brief: as §1

[3] = system: oat, wild (wild oat, Avena fatua); experiment: Test D pre-/postemergence: oat, wild
Method in brief: as §1

[4] = system: wheat, winter (winter wheat, Triticum aestivum); experiment: Test D pre-/postemergence: wheat, winter
Method in brief: as §1

[5] = system: soybean (Glycine max); experiment: Test F pre-/postemergence: soybean
Method in brief: (§2)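 Seeds were sown in silt loam soil and sprayed preemergence with test chemical in a non-phytotoxic solvent mixture containing surfactant; postemergence treatments went onto plants 2 to 18 cm tall (1- to 4-leaf stage) grown in peat moss/vermiculite medium. After 14 to 21 days in a greenhouse, injury was rated visually against controls, 0 (no effect) to 100 (complete control).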

[6] = system: velvetleaf (Abutilon theophrasti); experiment: Test F pre-/postemergence: velvetleaf; details: Preemergence
Method in brief: as §2

[7] = system: ragweed (common ragweed, Ambrosia elatior); experiment: Test F pre-/postemergence: ragweed; details: Preemergence
Method in brief: as §2

[8] = system: sandbur (southern sandbur, Cenchrus echinatus); experiment: Test F pre-/postemergence: sandbur
Method in brief: as §2

[9] = system: ryegrass, Italian (Italian ryegrass, Lolium multiflorum); experiment: Test F pre-/postemergence: ryegrass, Italian
Method in brief: as §2

[10] = system: nightshade (eastern black nightshade, Solanum ptycanthum); experiment: Test F pre-/postemergence: nightshade; details: Preemergence
Method in brief: as §2

[11] = Postemergence, 31 g ai/ha, scale 0 to 100 (0 no effect, 100 complete control)
[12] = Postemergence, 62 g ai/ha, scale 0 to 100 (0 no effect, 100 complete control)
[13] = Postemergence, 125 g ai/ha, scale 0 to 100, 0 no effect, 100 complete control
[14] = Postemergence, 16 g ai/ha, scale 0 to 100
[15] = Preemergence, 16 g ai/ha, scale 0 to 100, 0 no effect, 100 complete control
[16] = Preemergence, 31 g ai/ha, scale 0 to 100, 0 no effect, 100 complete control
[17] = Preemergence, 62 g ai/ha, scale 0 to 100
[18] = Preemergence, 125 g ai/ha, scale 0 to 100
[19] = Postemergence, 8 g ai/ha, scale 0 to 100
[20] = Postemergence, 31 g ai/ha, scale 0 to 100
[21] = Postemergence, 62 g ai/ha, scale 0 to 100
[22] = Postemergence, 125 g ai/ha, scale 0 to 100
[23] = Preemergence, 8 g ai/ha, scale 0 to 100, 0 no effect, 100 complete control
[24] = 8 g ai/ha, scale 0 to 100, 0 no effect, 100 complete control
[25] = 16 g ai/ha, scale 0 to 100, 0 no effect, 100 complete control
[26] = 31 g ai/ha, scale 0 to 100, 0 no effect, 100 complete control

For `CCOc1nn(-c2ccc(F)cc2)nc1Cc1ccnc(C(F)(F)F)c1` [Compound 196, 4-[[5-ethoxy-2-(4-fluorophenyl)-2H-1,2,3-triazol-4-yl]methyl]-2-(trifluoromethyl)pyridine], the “Plant response rating: Lambsquarters” value [1, 11] was 90, the “Plant response rating: Lambsquarters” value [1, 12] was 90 and the “Plant response rating: Lambsquarters” value [1, 13] was 95. The “Plant response rating, Lambsquarters” value [1, 14] was 85, the “Plant response rating, Lambsquarters” value [1, 15] was 55 and the “Plant response rating, Lambsquarters” value [1, 16] was 65. The “Plant response rating, Lambsquarters” value [1, 17] was 100, the “Plant response rating, Lambsquarters” value [1, 18] was 100 and the “Plant response rating: Pigweed” value [2, 11] was 95. For the same molecule, the “Plant response rating: Pigweed” value [2, 12] was 95, the “Plant response rating: Pigweed” value [2, 13] was 100 and the “Plant response rating, Pigweed” value [2, 14] was 85. For the same molecule, the “Plant response rating, Pigweed” value [2, 15] was 65, the “Plant response rating, Pigweed” value [2, 16] was 100 and the “Plant response rating, Pigweed” value [2, 17] was 100. For the same molecule, the “Plant response rating, Pigweed” value [2, 18] was 100, the “Plant response rating: Oat, Wild” value [3, 11] was 50 and the “Plant response rating: Oat, Wild” value [3, 12] was 45. The “Plant response rating: Oat, Wild” value [3, 13] was 70, the “Plant response rating, Oat, Wild” value [3, 14] was 15 and the “Plant response rating, Oat, Wild” value [3, 15] was 25. For the same molecule, the “Plant response rating, Oat, Wild” value [3, 16] was 30, the “Plant response rating, Oat, Wild” value [3, 17] was 75 and the “Plant response rating, Oat, Wild” value [3, 18] was 100. For the same molecule, the “Plant response rating: Wheat, Winter” value [4, 11] was 20, the “Plant response rating: Wheat, Winter” value [4, 12] was 25 and the “Plant response rating: Wheat, Winter” value [4, 13] was 35. For the same molecule, the “Plant response rating, Wheat, Winter” value [4, 14] was 15, the “Plant response rating, Wheat, Winter” value [4, 15] was 5 and the “Plant response rating, Wheat, Winter” value [4, 16] was 5. For the same molecule, the “Plant response rating, Wheat, Winter” value [4, 17] was 10, the “Plant response rating, Wheat, Winter” value [4, 18] was 15 and the “Plant response rating, Soybean” value [5, 19] was 50. For the same molecule, the “Plant response rating, Soybean” value [5, 14] was 60, the “Plant response rating, Soybean” value [5, 20] was 65 and the “Plant response rating, Soybean” value [5, 21] was 70. For the same molecule, the “Plant response rating, Soybean” value [5, 22] was 80, the “Plant response rating, Soybean” value [5, 23] was 0 and the “Plant response rating, Soybean” value [5, 15] was 0. The “Plant response rating, Soybean” value [5, 16] was 20, the “Plant response rating, Soybean” value [5, 18] was 35 and the “Plant response rating, Velvetleaf” value [6, 24] was 0. The “Plant response rating, Velvetleaf” value [6, 25] was 10, the “Plant response rating, Velvetleaf” value [6, 26] was 20 and the “Plant response rating, Velvetleaf” value ([6]; 125 g ai/ha, scale 0 to 100) was 95. For the same molecule, the “Plant response rating, Ragweed” value [7, 24] was 0, the “Plant response rating, Ragweed” value [7, 25] was 0 and the “Plant response rating, Ragweed” value [7, 26] was 0. The “Plant response rating, Ragweed” value ([7]; 125 g ai/ha, scale 0 to 100) was 50, the “Plant response rating, Sandbur” value [8, 19] was 10 and the “Plant response rating, Sandbur” value [8, 14] was 20. For the same molecule, the “Plant response rating, Sandbur” value [8, 20] was 20, the “Plant response rating, Sandbur” value [8, 21] was 30 and the “Plant response rating, Sandbur” value [8, 22] was 50. The “Plant response rating, Sandbur” value [8, 23] was 5, the “Plant response rating, Sandbur” value [8, 15] was 5 and the “Plant response rating, Sandbur” value [8, 16] was 5. For the same molecule, the “Plant response rating, Sandbur” value [8, 18] was 98, the “Plant response rating, Ryegrass, Italian” value [9, 19] was 15 and the “Plant response rating, Ryegrass, Italian” value [9, 14] was 20. For the same molecule, the “Plant response rating, Ryegrass, Italian” value [9, 20] was 40, the “Plant response rating, Ryegrass, Italian” value [9, 21] was 70 and the “Plant response rating, Ryegrass, Italian” value [9, 22] was 80. For the same molecule, the “Plant response rating, Ryegrass, Italian” value [9, 23] was 0, the “Plant response rating, Ryegrass, Italian” value [9, 15] was 40 and the “Plant response rating, Ryegrass, Italian” value [9, 16] was 75. The “Plant response rating, Ryegrass, Italian” value [9, 18] was 100, the “Plant response rating, Nightshade” value [10, 24] was 95 and the “Plant response rating, Nightshade” value [10, 25] was 95. The “Plant response rating, Nightshade” value [10, 26] was 95 and the “Plant response rating, Nightshade” value ([10]; 125 g ai/ha, scale 0 to 100) was 100.
